What was measured:
B-Raf V600E = B-Raf V600E (Homo sapiens (Human), UniProt P15056, V600E); experiment: B-Raf V600E kinase biochemical activity assay (AlphaScreen, biotin-MEK1 substrate); settings: 100 μM ATP
How it was run: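 B-Raf V600E (0.1 ng) phosphorylated 100 nM biotin-MEK1 with 100 μM ATP (final) in HEPES pH 7.0 with Mg2+/Mn2+ for 45 min at room temperature. Compounds were tested over an 8-point serial dilution. Phospho-MEK1/2 was detected by AlphaScreen after 3 h with beads, and IC50 came from signal versus concentration.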

[1] = test system: IPC-298 human melanoma cell line that expresses activated NRAS; experiment: IPC-298_P-ERK cell activation assay (phosphorylated ERK, AlphaScreen); assay type: cell-based; settings: 1 h, IPC-298 cells, P-ERK activation, compound for one hour
Experimental: B9 is a squamous cell carcinoma cell line expressing activated HRAS that was isolated from a DMBA/TPA-induced mouse model of skin carcinogenesis (Stoler, et al. The Journal of Cell Biology, 1993, 122(5), 1103-17). IPC-298 is a human melanoma cell line that expresses activated NRAS (Aubert, et al. International Journal of Cancer, 1993, 54(5), 784-92). To determine whether compounds induce phosphorylated ERK and MEK, cells are plated in a 96-well dish and treated with an 8-point titration of compound for one hour at 37° C. The media is then removed and the cells are incubated with lysis buffer containing protease and phosphatase inhibitors. Phosphorylated ERK and MEK in the resulting lysates is detected using AlphaScreen™ technology. To detect phosphorylated ERK, cell lysates are incubated with streptavidin-coated donor beads, anti-mouse IgG acceptor beads, a biotinylated anti-ERK1/2 rabbit antibody, and a mouse antibody that recognizes ERK1/2 only when it is phosphorylated on Thr202 and Tyr204. The biotinylated ERK1/2 antibody will bind to both the streptavidin-coated donor beads and to ERK1/2 (regardless of its phosphorylation state), and the phospho-ERK1/2 antibody will bind to the acceptor beads and to ERK1/2 that is phosphorylated at Thr202/Tyr204. Excitation of the beads with laser light at 680 nm produces singlet oxygen, which is rapidly quenched unless the beads are in close proximity. When ERK is phosphorylated, both antibodies can bind the same protein, bringing the donor and acceptor beads into close proximity, producing a signal that can be measured at 580 nm. MEK phosphorylation is detected using a similar approach, only with antibodies directed against total MEK1/2 and MEK1/2 that is phosphorylated at Ser217 and Ser221.

[2] = test system: COLO205 colon adenocarcinoma cells (B-Raf V600E mutation); experiment: COLO205 cell growth inhibition (ATPlite); assay type: cell-based; settings: Homo sapiens, COLO 205, 72 h, 3 days
How it was run: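 Cells treated for 3 days at 37 °C, 5% CO2 with an 8-point 1:3 dilution series, top final concentration 10 μM, DMSO control. ATPlite luminescence used as a measure of cell number; IC50 from reading versus concentration.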

Sequence of B-Raf V600E (P15056 whole entry V600E): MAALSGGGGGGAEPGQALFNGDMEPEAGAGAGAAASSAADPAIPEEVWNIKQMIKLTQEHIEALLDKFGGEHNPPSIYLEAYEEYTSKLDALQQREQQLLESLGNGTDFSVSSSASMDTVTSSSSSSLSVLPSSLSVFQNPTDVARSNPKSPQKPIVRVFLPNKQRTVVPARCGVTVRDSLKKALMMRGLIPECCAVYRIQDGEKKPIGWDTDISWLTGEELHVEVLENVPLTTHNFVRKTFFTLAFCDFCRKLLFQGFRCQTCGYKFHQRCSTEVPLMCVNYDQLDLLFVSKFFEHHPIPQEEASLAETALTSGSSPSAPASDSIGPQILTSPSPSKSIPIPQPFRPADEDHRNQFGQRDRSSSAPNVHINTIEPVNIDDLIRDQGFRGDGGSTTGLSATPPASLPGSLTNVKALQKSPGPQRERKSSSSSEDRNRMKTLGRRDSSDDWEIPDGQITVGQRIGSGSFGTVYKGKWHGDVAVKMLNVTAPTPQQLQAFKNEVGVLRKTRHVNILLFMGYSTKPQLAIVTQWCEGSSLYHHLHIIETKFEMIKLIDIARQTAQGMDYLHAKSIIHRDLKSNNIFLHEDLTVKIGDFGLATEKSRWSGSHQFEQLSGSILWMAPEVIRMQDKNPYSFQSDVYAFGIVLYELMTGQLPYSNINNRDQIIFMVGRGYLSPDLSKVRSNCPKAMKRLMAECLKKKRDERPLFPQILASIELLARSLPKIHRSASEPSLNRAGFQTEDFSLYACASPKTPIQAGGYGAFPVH

| Compound | IC50 (B-Raf V600E) | EC50 [1] | IC50 [2] |
| --- | --- | --- | --- |
| CCN(C)S(=O)(=O)Nc1ccc(F)c(C(=O)c2c[nH]c3ncc(Cl)cc23)c1F [Compound P-0012, 5-chloro-3-[3-[[ethyl(methyl)sulfamoyl]amino]-2,6-difluoro-benzoyl]-1H-pyrrolo[2,3-b]pyridine] | < 0.1 µM | > 10 µM | > 1 µM |
| CCN(C)S(=O)(=O)Nc1ccc(F)c(C(=O)c2c[nH]c3ncc(-c4cnc(OC)nc4)cc23)c1F [Compound P-0014] | – | > 8 µM | < 1 µM |
| CCN(C)S(=O)(=O)Nc1ccc(F)c(C(=O)c2c[nH]c3ncc(C#N)cc23)c1F [Compound P-0017, 5-cyano-3-[3-[[ethyl(methyl)sulfamoyl]amino]-2,6-difluoro-benzoyl]-1H-pyrrolo[2,3-b]pyridine] | < 0.1 µM | > 10 µM | > 1 µM |
| CCN(C)S(=O)(=O)Nc1cccc(C(=O)c2c[nH]c3ncc(Cl)cc23)c1F [Compound P-0018, 5-chloro-3-[3-[[ethyl(methyl)sulfamoyl]amino]-2-fluoro-benzoyl]-1H-pyrrolo[2,3-b]pyridine] | < 0.1 µM | > 10 µM | > 1 µM |
| CCN(C)S(=O)(=O)Nc1cccc(C(=O)c2c[nH]c3ncc(-c4ccc(Cl)cc4)cc23)c1F [Compound P-0019] | – | > 10 µM | > 1 µM |
| CCN(C)S(=O)(=O)Nc1cccc(C(=O)c2c[nH]c3ncc(-c4cnc(OC)nc4)cc23)c1F [Compound P-0020] | – | > 10 µM | < 1 µM |
| Cc1cnc2[nH]cc(C(=O)c3cccc(NS(=O)(=O)N4CCCC4)c3F)c2c1 [Compound P-0023, N-[2-fluoro-3-(5-methyl-1H-pyrrolo[2,3-b]pyridine-3-carbonyl)phenyl]pyrrolidine-1-sulfonamide] | < 0.1 µM | > 10 µM | > 1 µM |
| COc1ncc(-c2cnc3[nH]cc(C(=O)c4cccc(NS(=O)(=O)N(C)C5CC5)c4F)c3c2)cn1 [Compound P-0025] | – | > 10 µM | < 1 µM |
| CCN(C)S(=O)(=O)Nc1cccc(C(=O)c2c[nH]c3ncc(-c4ccc(C)nc4)cc23)c1F [Compound P-0033] | – | > 10 µM | < 1 µM |
| CCN(C)S(=O)(=O)Nc1cccc(C(=O)c2c[nH]c3ncc(-c4ccc(F)cc4)cc23)c1F [Compound P-0034] | – | > 10 µM | > 1 µM |
| CN(C)S(=O)(=O)Nc1cccc(C(=O)c2c[nH]c3ncc(-c4ccc(F)cc4)cc23)c1F [Compound P-0035] | – | > 10 µM | > 1 µM |
| CCN(C)S(=O)(=O)Nc1cccc(C(=O)c2c[nH]c3ncc(-c4ccccc4)cc23)c1F [Compound P-0036, 3-[3-[[ethyl(methyl)sulfamoyl]amino]-2-fluoro-benzoyl]-5-phenyl-1H-pyrrolo[2,3-b]pyridine] | < 0.1 µM | > 10 µM | – |
| CN(C)S(=O)(=O)Nc1cccc(C(=O)c2c[nH]c3ncc(-c4ccccc4)cc23)c1F [Compound P-0037, 3-[3-(dimethylsulfamoylamino)-2-fluoro-benzoyl]-5-phenyl-1H-pyrrolo[2,3-b]pyridine] | < 0.1 µM | > 10 µM | – |
| CCN(C)S(=O)(=O)Nc1cccc(C(=O)c2c[nH]c3ncc(Br)cc23)c1F [Compound P-0038, 5-bromo-3-[3-[[ethyl(methyl)sulfamoyl]amino]-2-fluoro-benzoyl]-1H-pyrrolo[2,3-b]pyridine] | < 0.1 µM | > 10 µM | > 1 µM |
| CCN(C)S(=O)(=O)Nc1cccc(C(=O)c2c[nH]c3ncc(C#N)cc23)c1F [Compound P-0039, 5-cyano-3-[3-[[ethyl(methyl)sulfamoyl]amino]-2-fluoro-benzoyl]-1H-pyrrolo[2,3-b]pyridine] | – | > 10 µM | > 1 µM |
| CCCN(C)S(=O)(=O)Nc1cccc(C(=O)c2c[nH]c3ncc(-c4cnc(OC)nc4)cc23)c1F [Compound P-0040, 3-[2-fluoro-3-[[methyl(propyl)sulfamoyl]amino]benzoyl]-5-(2-methoxypyrimidin-5-yl)-1H-pyrrolo[2,3-b]pyridine] | < 0.1 µM | > 10 µM | < 1 µM |
| COc1ncc(-c2cnc3[nH]cc(C(=O)c4cccc(NS(=O)(=O)N5CCC(OCc6ccccc6)C5)c4F)c3c2)cn1 (centres unmarked) [Compound P-0041, 3-benzyloxy-N-[2-fluoro-3-[5-(2-methoxypyrimidin-5-yl)-1H-pyrrolo[2,3-b]pyridine-3-carbonyl]phenyl]pyrrolidine-1-sulfonamide] | > 0.1 µM | > 10 µM | – |
| Cn1cc(-c2cnc3[nH]cc(C(=O)c4cccc(NS(=O)(=O)CC5CC5)c4F)c3c2)cn1 [Compound P-0042, 1-cyclopropyl-N-[2-fluoro-3-[5-(1-methylpyrazol-4-yl)-1H-pyrrolo[2,3-b]pyridine-3-carbonyl]phenyl]methanesulfonamide] | – | > 10 µM | < 1 µM |
| COc1ncc(-c2cnc3[nH]cc(C(=O)c4cccc(NS(=O)(=O)N5CCCC5)c4F)c3c2)c(OC)n1 [Compound P-0044, N-[3-[5-(2,4-dimethoxypyrimidin-5-yl)-1H-pyrrolo[2,3-b]pyridine-3-carbonyl]-2-fluoro-phenyl]pyrrolidine-1-sulfonamide] | – | > 10 µM | < 1 µM |
| CN(C)c1ccc(-c2cnc3[nH]cc(C(=O)c4cccc(NS(=O)(=O)N5CCCC5)c4F)c3c2)cn1 [Compound P-0046, N-[3-[5-[6-(dimethylamino)-3-pyridyl]-1H-pyrrolo[2,3-b]pyridine-3-carbonyl]-2-fluoro-phenyl]pyrrolidine-1-sulfonamide] | < 0.1 µM | > 10 µM | – |
| CCN(C)S(=O)(=O)Nc1cccc(C(=O)c2c[nH]c3ncc(-c4ccc(C5(C#N)CC5)cc4)cc23)c1F [Compound P-0061, 5-[4-(1-cyanocyclopropyl)phenyl]-3-[3-[[ethyl(methyl)sulfamoyl]amino]-2-fluoro-benzoyl]-1H-pyrrolo[2,3-b]pyridine] | < 0.1 µM | > 10 µM | – |
| COc1cc(-c2cnc3[nH]cc(C(=O)c4c(F)ccc(NS(=O)(=O)N5CCCC5)c4F)c3c2)ccn1 [Compound P-0287, N-[2,4-difluoro-3-[5-(2-methoxy-4-pyridyl)-1H-pyrrolo[2,3-b]pyridine-3-carbonyl]phenyl]pyrrolidine-1-sulfonamide] | – | > 4 µM | < 1 µM |
| O=C(c1c(F)ccc(NS(=O)(=O)N2CCC(F)(F)C2)c1F)c1c[nH]c2ncc(-c3cnc(C4CC4)nc3)cc12 [Compound P-0288, N-[3-[5-(2-cyclopropylpyrimidin-5-yl)-1H-pyrrolo[2,3-b]pyridine-3-carbonyl]-2,4-difluoro-phenyl]-3,3-difluoro-pyrrolidine-1-sulfonamide] | < 0.1 µM | > 2 µM | – |
| CCN(C)S(=O)(=O)Nc1ccc(F)c(C(=O)c2c[nH]c3ncc(-c4ccc(C#N)cc4)cc23)c1F [Compound P-0300, 5-(4-cyanophenyl)-3-[3-[[ethyl(methyl)sulfamoyl]amino]-2,6-difluoro-benzoyl]-1H-pyrrolo[2,3-b]pyridine] | < 0.1 µM | > 4 µM | – |
| NS(=O)(=O)Nc1ccc(F)c(C(=O)c2c[nH]c3ncc(-c4cnc(C5CC5)nc4)cc23)c1F [Compound P-0336, 5-(2-cyclopropylpyrimidin-5-yl)-3-[2,6-difluoro-3-(sulfamoylamino)benzoyl]-1H-pyrrolo[2,3-b]pyridine] | > 0.1 µM | > 4 µM | – |
